Results on 20 molecules are retold here after ChEMBL document CHEMBL5528002, “Identification of selective 5-LOX and FLAP inhibitors as novel anti-inflammatory agents by ligand-based virtual screening” (Eur J Med Chem, 2024).

The source made the active and inactive calls. The calls are words filed in the database; no cut-off is given here.

For assay [1], the target named is T1, Bifunctional epoxide hydrolase 2 (Homo sapiens) (UniProt P34913).
T1 sequence (whole entry): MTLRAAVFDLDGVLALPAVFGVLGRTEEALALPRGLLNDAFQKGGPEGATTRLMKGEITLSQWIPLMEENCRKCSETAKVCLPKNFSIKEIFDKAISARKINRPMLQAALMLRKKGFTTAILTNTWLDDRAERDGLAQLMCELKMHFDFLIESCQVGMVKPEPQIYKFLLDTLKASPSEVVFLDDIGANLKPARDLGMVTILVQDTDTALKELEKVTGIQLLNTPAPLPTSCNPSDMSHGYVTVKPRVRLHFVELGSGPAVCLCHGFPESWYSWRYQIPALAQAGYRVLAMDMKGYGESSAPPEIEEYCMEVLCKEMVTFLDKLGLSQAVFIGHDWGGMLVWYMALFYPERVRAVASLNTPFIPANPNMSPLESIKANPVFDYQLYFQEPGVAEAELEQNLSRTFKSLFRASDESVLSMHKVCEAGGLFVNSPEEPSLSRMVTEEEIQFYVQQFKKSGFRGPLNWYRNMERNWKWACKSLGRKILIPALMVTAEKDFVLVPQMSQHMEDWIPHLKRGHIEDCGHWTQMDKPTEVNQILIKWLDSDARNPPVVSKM
The assay is described as follows: Inhibition of human sEH at 10 uM relative to control.

The target in assay [2] is T2, Polyunsaturated fatty acid 5-lipoxygenase (Homo sapiens) (UniProt P09917).
T2 sequence (whole entry): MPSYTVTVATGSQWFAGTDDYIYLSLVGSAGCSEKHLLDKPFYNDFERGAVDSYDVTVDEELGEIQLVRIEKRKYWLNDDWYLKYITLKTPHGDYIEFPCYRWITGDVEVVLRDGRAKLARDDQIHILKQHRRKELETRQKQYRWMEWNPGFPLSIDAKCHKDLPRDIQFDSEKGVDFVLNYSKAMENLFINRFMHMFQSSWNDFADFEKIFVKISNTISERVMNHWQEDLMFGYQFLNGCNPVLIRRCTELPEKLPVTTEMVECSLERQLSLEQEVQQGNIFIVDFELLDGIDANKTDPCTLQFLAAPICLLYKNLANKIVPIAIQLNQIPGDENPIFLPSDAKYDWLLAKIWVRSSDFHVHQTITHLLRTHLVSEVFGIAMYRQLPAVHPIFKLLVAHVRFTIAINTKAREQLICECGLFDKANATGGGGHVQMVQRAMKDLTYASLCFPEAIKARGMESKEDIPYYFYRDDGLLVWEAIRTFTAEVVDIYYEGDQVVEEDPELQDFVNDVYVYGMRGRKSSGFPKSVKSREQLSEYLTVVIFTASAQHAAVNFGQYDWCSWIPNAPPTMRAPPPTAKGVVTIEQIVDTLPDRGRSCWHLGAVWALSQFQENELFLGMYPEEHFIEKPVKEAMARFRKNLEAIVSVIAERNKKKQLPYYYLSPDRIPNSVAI
The assay is described as follows: Inhibition of human recombinant 5-LOX expressed in Escherichia coli BL21(DE3) assessed as enzyme remaining activity at 10 uM using arachidonic acid as substrate preincubated with compound for 15 mins followed by substrate and CaCl2 addition measured after 10 mins by RP-HPLC analysis relative to control. As to conditions: time 25.0 min.

Assay [3] concerns the target T2, Polyunsaturated fatty acid 5-lipoxygenase (Homo sapiens). The assay is described as follows: Inhibition of 5-LOX in human Neutrophil assessed as enzyme remaining activity at 10 uM using arachidonic acid as substrate preincubated with compound for 15 mins followed by substrate and A23187 addition measured after 10 mins by RP-HPLC analysis relative to control. It is filed as cell-based. The following applies: time 25.0 min.

In assay [4] the target is T3, Prostaglandin E synthase (Homo sapiens) (UniProt O14684).
T3 sequence (whole entry): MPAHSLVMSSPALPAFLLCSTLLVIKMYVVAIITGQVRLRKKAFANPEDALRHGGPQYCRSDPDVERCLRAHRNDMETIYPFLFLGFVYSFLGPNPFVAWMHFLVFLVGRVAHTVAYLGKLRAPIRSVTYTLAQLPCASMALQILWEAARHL
The assay is described as follows: Inhibition of human mPGES-1 at 10 uM relative to control.

Assay [5] deals with T2, Polyunsaturated fatty acid 5-lipoxygenase (Homo sapiens). The assay is described as follows: Inhibition of 5-LOX in human Neutrophil at 10 uM preincubated with compound for 15 mins followed by A23187 addition measured after 10 mins by RP-HPLC analysis relative to control. The assay is classed as cell-based. As to conditions: time 25.0 min.
The target is the same in assay [6]. The assay is described as follows: Inhibition of 5-LOX in human Neutrophil assessed as enzyme remaining activity at 10 uM preincubated with compound for 15 mins followed by A23187 addition measured after 10 mins by RP-HPLC analysis relative to control. The assay is classed as cell-based. The following applies: time 25.0 min.
Assay [7] concerns the target T3, Prostaglandin E synthase (Homo sapiens). The assay is described as follows: Inhibition of human mPGES-1 assessed as enzyme remaining activity at 10 uM relative to control.
Assay [8] deals with T1, Bifunctional epoxide hydrolase 2 (Homo sapiens). The assay is described as follows: Inhibition of human sEH assessed as enzyme remaining activity at 10 uM relative to control.

The inhibition is how much of the control response was suppressed. As to `O=C(c1ccc2ccccc2n1)C(O)c1ccc2ccccc2n1` (centres undefined), the inhibition in assay [1] is over 35%. In addition, the Activity in assay [2] turned out to be 99.8%; in assay [3], 99.6%; in assay [6], 111%. For the same molecule, the inhibition result in assay [4] and in assay [5] was “inactive” each time.
In assay [1], `O=C(NCc1ccco1)Nc1cccc(-c2ccccc2)c1` yielded an inhibition of over 35%. The Activity in assay [2] amounted to 96.4%; in assay [3] it was 92.4%; in assay [7], 88.1%; in assay [8] it was 91.4%; in assay [6] it was 97%. Also, the inhibition entry in assay [4] and in assay [5] was “inactive” in each case.
In assay [1], `O=C1C(C(O)c2ccccc2)CCCC1C(O)c1ccccc1` (centres undefined) had an inhibition of over 35%. The Activity in assay [2] came out at 103%; in assay [3], 77.9%; in assay [7], 81.1%; in assay [8] it was 132%; in assay [6], 152%. Besides, the inhibition entry in assay [4] and in assay [5] was “inactive” in each case.
The molecule `O=C1N=C(Nc2nc3ccccc3[nH]2)OC1c1ccccc1` (centres undefined) returned an inhibition in assay [1] of over 35%. Further, the Activity was 94.4% in assay [2]; 102% in assay [3]; 83.6% in assay [7]; 99.9% in assay [8]; 121% in assay [6]. Further, the inhibition entry in assay [4] and in assay [5] was “inactive” throughout.
With `Cc1ccn(C(=O)C2=Cc3ccccc3OC2)c(=N)c1`, the inhibition in assay [1] is over 35%. Further, the Activity in assay [7] is 84.3%; in assay [8], 121%. In addition, the inhibition entry in assay [4] and in assay [5] was “inactive” throughout.
The molecule `CC(=O)c1cccc(NC(=O)Oc2ccc3c(C)cc(=O)oc3c2)c1` showed an inhibition in assay [1] of over 35%. Also, the Activity turned out to be 115% in assay [2]; 106% in assay [3]; 93.4% in assay [7]; 196% in assay [8]; 104% in assay [6]. Also, the inhibition result in assay [4] and in assay [5] was “inactive” in each case.
Take `CC(=O)NC(CC(=O)Nc1cccc2c1Cc1ccccc1-2)C(=O)O` (centres undefined): the inhibition in assay [1] was over 35%. Also, the Activity was determined as 107% in assay [2]; 102% in assay [3]; 96.3% in assay [7]; 81% in assay [8]; 94.2% in assay [6]. In addition, the inhibition entry in assay [4] and in assay [5] was “inactive” each time.
Consider `O=C1C/C(=C/c2cccc(OCc3ccccc3)c2)C(=O)N1`, for which the inhibition in assay [1] is over 35%. Besides, the Activity in assay [2] worked out at 94.4%; in assay [3] it was 67.1%; in assay [7] it was 83.1%; in assay [8], 128%; in assay [6] it was 112%. The inhibition result in assay [4] and in assay [5] was “inactive” each time.
On to `O=C1C(=O)C(CCc2ccccc2)C(=O)/C1=C/c1ccccc1` (centres undefined), for which the inhibition in assay [1] was over 35%; in assay [4], over 50%. In addition, the Activity in assay [2] was determined as 110%; in assay [3], 80.6%; in assay [7], 27.4%; in assay [8], 101%; in assay [6], 105%. Moreover, the inhibition entry in assay [5] was “inactive”.
With `N=c1c2c(ncn1Cc1ccccc1)CCN(Cc1ccccc1)C2`, in assay [1], the inhibition was over 35%. For the same molecule, the Activity in assay [2] stood at 96.2%; in assay [3], 80.1%; in assay [7] it was 93.9%; in assay [8], 91.6%; in assay [6] it was 82.3%. The inhibition result in assay [4] and in assay [5] was “inactive” each time.
In the case of `O=C(/C=C/c1ccccc1)CCc1c(O)c2ccccc2oc1=O`, the inhibition is over 35% in assay [1] and under 40% in assay [4]. Besides, the Activity was determined as 67.6% in assay [2]; 60.1% in assay [3]; 52.6% in assay [7]; 108% in assay [8]; 47.6% in assay [6]. Besides, the inhibition entry in assay [5] was “inactive”.
`O=C(O)c1cc(O)c2cc(Cc3ccccc3)ccc2n1` displayed an inhibition in assay [1] of over 35%. Further, the Activity is 98.3% in assay [7] and 147% in assay [8]. Also, the inhibition result in assay [4] and in assay [5] was “inactive” throughout.
Regarding `N=C(N)/N=C(/C=C/c1ccccc1)CC1OC(=O)c2ccccc21` (centres undefined), the inhibition in assay [1] is over 35%; in assay [4] it was over 50%. Also, the Activity in assay [2] turned out to be 58.3%; in assay [3], 68%; in assay [7], 40.9%; in assay [8], 92.9%; in assay [6], 85.5%. Also, in assay [5], the inhibition entry is “inactive”.
`O=C(/C=C/c1ccccc1)NCCC1(O)C(=O)Nc2ccccc21` (centres undefined): the inhibition in assay [1] was over 35%. For the same molecule, the Activity in assay [7] was determined as 98.2%; in assay [8], 88.2%. Further, the inhibition result in assay [4] and in assay [5] was “inactive” each time.
In the case of `O=C(O)c1cnc2cc(OCCc3ccc(F)cc3)ccc2c1O`, in assay [1], the inhibition is over 35%. The Activity in assay [2] came to 66.9%; in assay [3], 87.6%; in assay [7] it was 75.9%; in assay [8] it was 72.5%; in assay [6], 89.1%. Also, the inhibition result in assay [4] and in assay [5] was “inactive” throughout.
For the molecule `N=c1[nH]nc2nc(CC(=O)c3ccc4ccccc4c3)c(=O)[nH]n12`, the inhibition in assay [1] was over 35%. Besides, the inhibition result in assay [4] and in assay [5] was “inactive” in each case.
In turn, `O=C(c1nc2ccc(Cl)cc2nc1O)C(O)c1ccc2c(c1)OCO2` (centres undefined) registered an inhibition in assay [1] of over 35%. Besides, the Activity is 81.2% in assay [2]; 90.7% in assay [3]; 89.4% in assay [7]; 93.8% in assay [8]; 101% in assay [6]. Also, the inhibition entry in assay [4] and in assay [5] was “inactive” in each case.
For `Cc1cc(=O)oc(C)c1C(=O)Oc1ccc2ccccc2c1`, the inhibition in assay [1] was over 35%. Also, the Activity in assay [2] was 91.1%; in assay [3] it was 79.5%; in assay [7], 88.2%; in assay [8], 75.7%; in assay [6], 87.9%. Also, the inhibition entry in assay [4] and in assay [5] was “inactive” throughout.
For the molecule `CC(=O)c1ccc(NCN2C(=O)c3ccccc3C2=O)cc1`, the inhibition in assay [1] was over 35%; in assay [4], over 50%. Moreover, the Activity in assay [2] was 97.2%; in assay [3], 91.8%; in assay [7], 47.6%; in assay [8], 102%; in assay [6], 72.8%. The inhibition result in assay [5] was “inactive”.
`NNC(=O)CCc1ccc2ccc3ccccc3c2c1`: in assay [1], the inhibition was over 35%. In addition, the Activity stood at 75.1% in assay [2]; 93.1% in assay [3]; 80.5% in assay [7]; 92.9% in assay [8]; 80.2% in assay [6]. The inhibition result in assay [4] and in assay [5] was “inactive” in each case.
